Structures can show the parent of a compound that is named as a salt. Where two headings read alike, the source gives them in different places.

The text below walks through data of US20110082166A1, “NOVEL 4-BENZHYDRYL-TETRAHYDRO-PYRIDINE DERIVATIVES AND THEIR USE AS MONOAMINE NEUROTRANSMITTER RE-UPTAKE INHIBITORS” (NEUROSEARCH A/S, priority 2008, published 2011).

Series [1] concerns the target T1, reuptake of serotonine (5-HT) in synaptosomes (Rattus norvegicus, UniProt P31652).
T1 construct: in synaptosomes as described in WO 97/16451 (NeuroSearch A/S); from tissue
The series can be described thus: In vitro inhibition of 5-HT reuptake in synaptosomes. Type of series: biochemical. The protocol: Compounds were tested for their ability to inhibit the reuptake of the monoamine neurotransmitters dopamine (DA) noradrenaline (NA) and serotonine (5-HT) in synaptosomes as described in WO 97/16451 (NeuroSearch A/S).
The test values are given as IC50 (the concentration (μM) of the test substance which inhibits the specific binding of ^3H-DA, ^3H-NA, or ^3H-5-HT by 50%).

Series [2] deals with T2, reuptake of noradrenaline (NA) in synaptosomes (Rattus norvegicus, UniProt Q63380).
T2 construct: in synaptosomes as described in WO 97/16451 (NeuroSearch A/S); from tissue
T2 sequence (Q63380 1-617): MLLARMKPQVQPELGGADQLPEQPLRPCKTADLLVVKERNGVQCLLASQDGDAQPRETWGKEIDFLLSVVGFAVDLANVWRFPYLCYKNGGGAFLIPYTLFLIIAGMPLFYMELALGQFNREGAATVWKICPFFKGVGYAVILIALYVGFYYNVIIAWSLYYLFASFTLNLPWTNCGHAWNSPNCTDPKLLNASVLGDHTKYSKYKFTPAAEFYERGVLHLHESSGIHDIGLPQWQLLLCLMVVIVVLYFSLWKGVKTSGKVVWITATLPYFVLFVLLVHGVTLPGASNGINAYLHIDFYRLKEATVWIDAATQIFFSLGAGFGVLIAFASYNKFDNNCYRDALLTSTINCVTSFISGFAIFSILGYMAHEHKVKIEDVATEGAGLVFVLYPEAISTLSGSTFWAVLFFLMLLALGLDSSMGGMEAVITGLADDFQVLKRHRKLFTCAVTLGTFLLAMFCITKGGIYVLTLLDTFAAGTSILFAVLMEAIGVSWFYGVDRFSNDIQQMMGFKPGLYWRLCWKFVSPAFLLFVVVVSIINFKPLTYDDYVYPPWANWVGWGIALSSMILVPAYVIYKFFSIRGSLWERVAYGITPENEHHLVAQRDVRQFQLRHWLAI
Briefly: In vitro inhibition of NA reuptake in synaptosomes. Type of series: biochemical.

Series [3] concerns the target T3, reuptake of dopamine (DA) in synaptosomes (Rattus norvegicus, UniProt P23977).
T3 construct: in synaptosomes as described in WO 97/16451 (NeuroSearch A/S); from tissue
The series can be described thus: In vitro inhibition of DA reuptake in synaptosomes. Type of series: biochemical.

T3 sequence (P23977 whole entry): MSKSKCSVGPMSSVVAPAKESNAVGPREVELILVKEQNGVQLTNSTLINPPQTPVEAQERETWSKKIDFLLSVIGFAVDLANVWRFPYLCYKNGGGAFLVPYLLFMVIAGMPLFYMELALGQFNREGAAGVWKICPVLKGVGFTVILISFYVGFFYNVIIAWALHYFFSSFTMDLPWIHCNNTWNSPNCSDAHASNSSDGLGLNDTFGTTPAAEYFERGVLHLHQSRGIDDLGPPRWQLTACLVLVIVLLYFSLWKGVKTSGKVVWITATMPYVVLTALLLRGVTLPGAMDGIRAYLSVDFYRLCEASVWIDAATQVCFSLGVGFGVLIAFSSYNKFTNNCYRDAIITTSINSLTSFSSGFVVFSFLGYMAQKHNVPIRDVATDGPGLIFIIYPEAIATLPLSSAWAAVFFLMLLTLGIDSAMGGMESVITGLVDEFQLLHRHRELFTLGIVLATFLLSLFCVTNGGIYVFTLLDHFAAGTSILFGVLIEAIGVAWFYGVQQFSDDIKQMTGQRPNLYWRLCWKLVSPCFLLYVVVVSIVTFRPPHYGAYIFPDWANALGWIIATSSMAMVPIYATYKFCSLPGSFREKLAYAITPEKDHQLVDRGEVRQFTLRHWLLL
T1 sequence (P31652 whole entry): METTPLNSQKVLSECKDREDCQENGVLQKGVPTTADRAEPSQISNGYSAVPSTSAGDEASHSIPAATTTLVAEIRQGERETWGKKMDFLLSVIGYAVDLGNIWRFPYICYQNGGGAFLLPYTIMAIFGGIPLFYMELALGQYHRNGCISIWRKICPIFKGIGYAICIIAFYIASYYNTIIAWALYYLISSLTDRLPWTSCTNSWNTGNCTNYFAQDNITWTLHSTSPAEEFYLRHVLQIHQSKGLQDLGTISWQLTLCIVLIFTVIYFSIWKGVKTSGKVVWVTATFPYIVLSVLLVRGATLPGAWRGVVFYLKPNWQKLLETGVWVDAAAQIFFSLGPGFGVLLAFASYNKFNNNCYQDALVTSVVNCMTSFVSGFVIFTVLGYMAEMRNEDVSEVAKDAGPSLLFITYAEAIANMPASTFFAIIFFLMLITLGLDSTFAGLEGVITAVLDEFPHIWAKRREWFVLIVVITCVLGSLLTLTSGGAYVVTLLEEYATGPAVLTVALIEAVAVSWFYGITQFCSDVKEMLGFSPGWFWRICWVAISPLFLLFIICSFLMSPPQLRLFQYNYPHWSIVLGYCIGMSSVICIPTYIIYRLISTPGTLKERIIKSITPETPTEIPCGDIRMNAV

What is called IC50 is the concentration that inhibits the measured activity by half. On to `CN1CC=C(C(c2ccccc2)c2ccccc2)CC1` [4-Benzhydryl-1-methyl-1,2,3,6-tetrahydro-pyridine], for which the IC50 was over 1000 nM in series [1] (synaptosomes, 3H-5-HT, read-out: 5-HT-uptake IC50); 600 nM in series [2] (synaptosomes, 3H-NA, read-out: NA-uptake IC50); 580 nM in series [3] (synaptosomes, 3H-DA, read-out: DA-uptake IC50).

On to `C1=C(C(c2ccccc2)c2ccccc2)CCNC1` [4-Benzhydryl-1,2,3,6-tetrahydro-pyridine], for which the IC50 amounted to 3.5 nM in series [1], 45 nM in series [2] and 63 nM in series [3].

What is called melting point is the temperature of the solid-liquid transition. In turn, `CN1CC=C(C(c2ccccc2)c2ccccc2)CC1` (as salt: fumaric acid salt) [4-Benzhydryl-1-methyl-1,2,3,6-tetrahydro-pyridine] came in with a melting point of 177.6 to 179.2 °C.
